According to US20190300882A1, “METHODS OF TREATING NEUROBLASTOMA AND REAGENTS THEREFOR” (GARVAN INSTITUTE OF MEDICAL RESEARCH, priority 2016, published 2019):

Columns and labels:
IMR-90 cells = assay: Cell toxicity screen of synthetic lethal miRNAs in non-cancer cells; conditions: for cell viability in non-cancer cells, DXR (% of control): IMR-90, miRNA + low dose IC30 doxorubicin; for cell viability in non-cancer cells, VCR (% of control): IMR-90, miRNA + low dose IC30 vincristine; for cell viability in non-cancer cells, Media (% of control): IMR-90, miRNA alone (media); for activity in IMR90 cells: even when administered in combination with a chemotherapeutic agent
Protocol: The cell toxicity screens were performed in IMR-90 cells (normal human fibroblast cells, ATCC).

KELLY cells [1] = assay: Primary miRNA mimic screen in combination with low dose IC30 of vincristine or doxorubicin, cell viability; type: cell-based; conditions: for Primary screen Viability (% of control) Kelly DXR: miRNA mimic 25 nM + low dose IC30 doxorubicin; for Primary screen Viability (% of control) Kelly VCR: miRNA mimic 25 nM + low dose IC30 vincristine; for Primary screen Viability (% of control) Kelly Vehicle: miRNA mimic 25 nM + vehicle
Protocol: To systematically identify miRNAs that affect viability and survival of neuroblstoma cells in combination with chemotherapy, a further functional miRNA screen was performed using the 1200 miRNAs from the miRIDIAN miRNA mimic Library (version 16.0; Dharmacon) in combination with low dose IC30 of vincristine or doxorubicin in the two neuroblastoma cancer cell lines. In doing so, the inventors identified miRNAs which result in a lethal phenotype to neuroblastoma cells when administered in combination with low dose IC30 chemotherapy (hereinafter referred to as ‘synthetic lethal’ miRNAs). […] After 24 hours, media was changed using a BioTek 406. […] Luminescence measurements were taken on the Synergy H4 high-throughput multimode microplate reader as described in Example 1. All screens were performed in duplicates.

KELLY cells [2] = assay: Secondary validation screen of synthetic lethal miRNAs with low dose IC30 chemotherapy, cell viability; type: cell-based; conditions: for synthetic lethality with chemotherapy: in both Kelly and SKNDZ MYCN-amplified cells, secondary screen; for Secondary screen Viability (% of control) Kelly DXR: miRNA mimic + low dose IC30 doxorubicin; for Secondary screen Viability (% of control) Kelly VCR: miRNA mimic + low dose IC30 vincristine; for Secondary screen Viability (% of control) Kelly Vehicle: miRNA mimic + vehicle
Protocol: (§1) KELLY cells were grown in 10% FCS/RPMI as described in Example 1 and reverse transfected in 384-well plate format with 25 nM of a miRNA from the Dharmacon microRNA mimic Library (version 16.0) using liquid-handling robot Calliper Sciclone ALH3000 according to the conditions described in Table 3. After 24 hours, media was changed using a BioTek 406. Media was again changed after 48 hours and 96 hours using a BioTek 406, and at each of those time points low dose IC30 of vincristine or doxorubicin was added to the culture. 144 hours post-transfection, cell viability was determined using CellTiter-Glo luminescent assay (Promega) at 1:2 dilution. Luminescence measurements were taken on the Synergy H4 high-throughput multimode microplate reader as described in Example 1. All screens were performed in duplicates. The experimental design and timeline for this screen are illustrated in FIGS. 5 and 6, respectively.
(§2) The secondary validation screens were performed in accordance with the genome-wide screens described in Example 1 and Example 2, respectively, with the exception that an additional MYCN-amplified neuroblastoma cell line (SK-N-DZ) was added to each screen.
(§3) Furthermore, five additional non-active miRNAs discovered to have no measureable effect across all treatment groups of the genome-wide screen (‘non-lethal’ miRNAs) were included as negative controls.

[3] = test system: SK-N-DZ MYCN-amplified neuroblastoma cell line; assay: Secondary validation screen of synthetic lethal miRNAs with low dose IC30 chemotherapy, additional cell line; type: cell-based; conditions: for Additional cell line Viability (% of control) SKNDZ DXR: miRNA mimic + low dose IC30 doxorubicin; for Additional cell line Viability (% of control) SKNDZ VCR: miRNA mimic + low dose IC30 vincristine; for Additional cell line Viability (% of control) SKNDZ Vehicle: miRNA mimic + vehicle
Protocol: as §1, §2, §3

| Substance | cell viability in non-cancer cells, DXR (% of control) (IMR-90 cells) | cell viability in non-cancer cells, VCR (% of control) (IMR-90 cells) | cell viability in non-cancer cells, Media (% of control) (IMR-90 cells) | Primary screen Viability (% of control) Kelly DXR (KELLY cells [1]) | Primary screen Viability (% of control) Kelly VCR (KELLY cells [1]) | Primary screen Viability (% of control) Kelly Vehicle (KELLY cells [1]) | synthetic lethality with chemotherapy (KELLY cells [2]) | Secondary screen Viability (% of control) Kelly DXR (KELLY cells [2]) | Secondary screen Viability (% of control) Kelly VCR (KELLY cells [2]) | Secondary screen Viability (% of control) Kelly Vehicle (KELLY cells [2]) | Additional cell line Viability (% of control) SKNDZ DXR [3] | Additional cell line Viability (% of control) SKNDZ VCR [3] | Additional cell line Viability (% of control) SKNDZ Vehicle [3] | activity in IMR90 cells (IMR-90 cells) |
| --- | --- | --- | --- | --- | --- | --- | --- | --- | --- | --- | --- | --- | --- | --- |
| hsa-miR-34a-5p (UGGCAGUGUCUUAGCUGGUUGU; chemistry not given here; listed as Homo sapiens) | 53 % of control | 63 % of control | 46 % of control | 70 % of control | 36 % of control | 72 % of control | substantial synthetic lethality | 98 % of control | 35 % of control | 96 % of control | 74 % of control | 57 % of control | 92 % of control | – |
| hsa-miR-34c-5p (AGGCAGUGUAGUUAGCUGAUUGC; chemistry not given here; listed as Homo sapiens) | – | – | – | 74 % of control | 36 % of control | 72 % of control | – | 80 % of control | 18 % of control | 68 % of control | 34 % of control | 31 % of control | 53 % of control | – |
| hsa-miR-99b-5p (guide CACCCGUAGAACCGACCUUGCG; chemistry not given here; listed as Homo sapiens) | 72 % of control | 75 % of control | 87 % of control | 28 % of control | 49 % of control | 65 % of control | substantial synthetic lethality | 29 % of control | 44 % of control | 67 % of control | 36 % of control | 61 % of control | 93 % of control | minimal activity |
| hsa-miR-100-5p (AACCCGUAGAUCCGAACUUGUG; chemistry not given here; listed as Homo sapiens) | – | – | – | 34 % of control | 48 % of control | 68 % of control | – | 43 % of control | 43 % of control | 69 % of control | 48 % of control | 69 % of control | 98 % of control | – |
| hsa-miR-380-3p (UAUGUAAUAUGGUCCACAUCUU; chemistry not given here; listed as Homo sapiens) | 96 % of control | 117 % of control | 99 % of control | 20 % of control | 63 % of control | 94 % of control | substantial synthetic lethality | 38 % of control | 76 % of control | 90 % of control | 30 % of control | 80 % of control | 100 % of control | minimal activity |
